Legend:
Test in all cases: Post-emergence efficacy, Method A
Type in all cases: in vivo
Eleusine indica (ELEIN) = details: Application rate 500 g/Ha, evaluated after 13 days; for Control of weed species ELEIN after post-emergence application (100=total damage to plant; 0=no damage to plant): Method A; for Control of weed species after post-emergence application, ELEIN: 100=total damage to plant, 0=no damage
Procedure: (§1) Seeds of a variety of test species were sown in standard soil in pots. After cultivation for 14 days (post-emergence) under controlled conditions in a glasshouse (at 24/16° C., day/night; 14 hours light; 65% humidity), the plants were sprayed with an aqueous spray solution derived from the dissolution of the technical active ingredient formula (I) in a small amount of acetone and a special solvent and emulsifier mixture referred to as IF50 (11.12% Emulsogen EL360 TM+44.44% N-methylpyrrolidone+44.44% Dowanol DPM glycol ether), to create a 50 g/l solution which was then diluted to required concentration using 0.25% or 1% Empicol ESC70 (Sodium lauryl ether sulphate)+1% ammonium sulphate as diluent.
(§2) The test plants were then grown in a glasshouse under controlled conditions (at 24/16° C., day/night; 14 hours light; 65% humidity) and watered twice daily. After 13 days the test was evaluated (100=total damage to plant; 0=no damage to plant).
(§3) Ipomoea hederacea (IPOHE), Euphorbia heterophylla (EPHHL), Chenopodium album (CHEAL), Amaranthus palmeri (AMAPA), Lolium perenne (LOLPE), Digitaria sanguinalis (DIGSA), Eleusine indica (ELEIN), Echinochloa crus-galli (ECHCG), Setaria faberi (SETFA)

[1] = test system: Echinochloa crus-galli (ECHCG); details: Application rate 500 g/Ha, evaluated after 13 days; for Control of weed species ECHCG after post-emergence application (100=total damage to plant; 0=no damage to plant): Method A; for Control of weed species after post-emergence application, ECHCG: 100=total damage to plant, 0=no damage
Procedure: as §1, §2, §3

[2] = test system: Amaranthus palmeri (AMAPA); details: Application rate 500 g/Ha, evaluated after 13 days; for Control of weed species AMAPA after post-emergence application (100=total damage to plant; 0=no damage to plant): Method A; for Control of weed species after post-emergence application, AMAPA: 100=total damage to plant, 0=no damage
Procedure: as §1, §2, §3

[3] = test system: Chenopodium album (CHEAL); details: Application rate 500 g/Ha, evaluated after 13 days; for Control of weed species CHEAL after post-emergence application (100=total damage to plant; 0=no damage to plant): Method A; for Control of weed species after post-emergence application, CHEAL: 100=total damage to plant, 0=no damage
Procedure: as §1, §2, §3

Setaria faberi (SETFA) = details: Application rate 500 g/Ha, evaluated after 13 days; for Control of weed species SETFA after post-emergence application (100=total damage to plant; 0=no damage to plant): Method A; for Control of weed species after post-emergence application, SETFA: 100=total damage to plant, 0=no damage
Procedure: as §1, §2, §3

[4] = test system: Euphorbia heterophylla (EPHHL); details: Application rate 500 g/Ha, evaluated after 13 days; for Control of weed species EPHHL after post-emergence application (100=total damage to plant; 0=no damage to plant): Method A; for Control of weed species after post-emergence application, EPHHL: 100=total damage to plant, 0=no damage
Procedure: as §1, §2, §3

[5] = test system: Digitaria sanguinalis (DIGSA); details: Application rate 500 g/Ha, evaluated after 13 days; for Control of weed species DIGSA after post-emergence application (100=total damage to plant; 0=no damage to plant): Method A; for Control of weed species after post-emergence application, DIGSA: 100=total damage to plant, 0=no damage
Procedure: as §1, §2, §3

| Structure (SMILES) | Control of weed species ELEIN after post-emergence application (100=total damage to plant; 0=no damage to plant) (Eleusine indica (ELEIN)) | Control of weed species ECHCG after post-emergence application (100=total damage to plant; 0=no damage to plant) [1] | Control of weed species AMAPA after post-emergence application (100=total damage to plant; 0=no damage to plant) [2] | Control of weed species CHEAL after post-emergence application (100=total damage to plant; 0=no damage to plant) [3] | Control of weed species SETFA after post-emergence application (100=total damage to plant; 0=no damage to plant) (Setaria faberi (SETFA)) | Control of weed species EPHHL after post-emergence application (100=total damage to plant; 0=no damage to plant) [4] | Control of weed species DIGSA after post-emergence application (100=total damage to plant; 0=no damage to plant) [5] | Control of weed species after post-emergence application, ELEIN (Eleusine indica (ELEIN)) | Control of weed species after post-emergence application, ECHCG [1] | Control of weed species after post-emergence application, AMAPA [2] | Control of weed species after post-emergence application, CHEAL [3] | Control of weed species after post-emergence application, SETFA (Setaria faberi (SETFA)) | Control of weed species after post-emergence application, EPHHL [4] | Control of weed species after post-emergence application, DIGSA [5] |
| --- | --- | --- | --- | --- | --- | --- | --- | --- | --- | --- | --- | --- | --- | --- |
| Cc1n[n+](CCC(=O)O)ccc1-c1ncccn1.[Cl-] [Compound A133] | 90 | 70 | 60 | 40 | 90 | 20 | 70 |  |  |  |  |  |  |  |
| COC(=O)CC[n+]1ccc(-c2cccnn2)cn1.O=C([O-])C(F)(F)F [Compound A139] | 100 | 100 | 80 | 100 | 100 | 90 | 100 |  |  |  |  |  |  |  |
| O=C(O)CC[n+]1ccc(-c2ncc(F)cc2F)cn1.O=C([O-])C(F)(F)F [Compound A144] | 20 | 20 | 20 | 10 | 20 | 20 | 30 |  |  |  |  |  |  |  |
| Cc1n[n+](CCC(=O)O)ccc1-c1ccccn1.O=C([O-])C(F)(F)F [Compound A145] | 0 | 0 | 10 | 10 | 0 | 10 | 10 |  |  |  |  |  |  |  |
| O=C(O)CC[n+]1ccc(-c2ccccn2)cn1.O=C([O-])C(F)(F)F [Compound A148] | 40 | 50 | 100 | 40 | 50 | 60 | 50 |  |  |  |  |  |  |  |
| O=C(O)CC[n+]1ccc(-c2ncccc2Cl)cn1.O=C([O-])C(F)(F)F [Compound A149] | 60 | 50 | 30 | 40 | 40 | 30 | 50 |  |  |  |  |  |  |  |
| Cc1c[n+](CCC(=O)O)ncc1-c1ncccn1.O=C([O-])C(F)(F)F [Compound A153] |  |  |  |  |  |  |  | 20 | 40 | 90 | 60 | 20 | 40 | 20 |
| O=C(O)CC[n+]1ccc(-c2ccncc2F)cn1.O=C([O-])C(F)(F)F [Compound A157] |  |  |  |  |  |  |  | 90 | 80 | 100 | 100 | 80 | 80 | 70 |
| Nc1nccc(-c2cc[n+](CCC(=O)O)nc2)n1.O=C([O-])C(F)(F)F [Compound A160] |  |  |  |  |  |  |  | 80 | 70 | 100 | 100 | 90 | 90 | 70 |
| O=C(O)CC[n+]1ccc(-c2ccnc(C(F)(F)F)c2)cn1.O=C([O-])C(F)(F)F [Compound A166] |  |  |  |  |  |  |  | 60 | 50 | 30 | 50 | 40 | 60 | 70 |
| CC(C)(C[n+]1ccc(-c2ccncn2)cn1)C(=O)O.O=C([O-])C(F)(F)F [Compound A167] |  |  |  |  |  |  |  | 80 | 60 | 20 | 70 | 40 | 90 | 50 |
| CC(CC(=O)O)[n+]1ccc(-c2ccncn2)cn1.O=C([O-])C(F)(F)F (centres unmarked) [Compound A172] |  |  |  |  |  |  |  | 70 | 50 | 30 | 60 | 50 | 50 | 80 |
| O=C(O)C(O)C[n+]1ccc(-c2ncccn2)cn1.O=C([O-])C(F)(F)F (centres unmarked) [Compound A180] |  |  |  |  |  |  |  | 90 | 70 | 100 | 90 | 70 | 80 | 60 |
| Nc1cc(-c2cc[n+](CCC(=O)O)nc2)nc(N)n1.O=C([O-])C(F)(F)F [Compound A188] |  |  |  |  |  |  |  | 20 | 50 | 90 | 50 | 30 | 30 | 40 |

From patent US11618743B2, “Herbicidal compounds” (SYNGENTA PARTICIPATIONS AG, priority 2017, dated 2023)
